Measured values reported in patent US11471448B2 (priority 2020, dated 2022).
Where a name gives a salt, the structure may show the parent alone.

Assays:
[1] = system: patients with COVID-19 pneumonia; assay: Randomized, double-blind, placebo-controlled Phase 2a study of opaganib in COVID-19 pneumonia; type: in vivo, human
Excerpt: This was a phase 2a, proof of concept, multi-center randomized double-blind, parallel arm, placebo-controlled study. After informed consent was obtained, patients entered a screening phase for no more than 3 days, to determine eligibility. […] Treatment assignments remained blinded to the patient, investigator and hospital staff, as well as the sponsor. As there was no consensus for a definitive treatment specifically targeting the SARS-CoV-2 virus causing COVID-19 (Wilson, 2020), standard of care referred to regional, institutional or physician directed therapies, that were implemented during the COVID-19 pandemic.
Study drug was to be administered every day for 14 days (Day 1 to Day 14), unless the patient had been discharged from the hospital without requiring supplemental oxygen, in which case study drug would only be administered to Day 10.
All participants were followed up for 4 weeks after their last dose of study drug, which may have occurred at the end of the 2-week double-blind treatment phase or after premature study drug discontinuation, based upon patient or physician determination. The maximum duration of study participation was up to 45 days (including up to 3 days screening; 2 weeks DB treatment phase and 4-weeks off-study drug follow-up)
• 1. Adult male or female≥18 to ≤80 years of age • 2. Proven COVID-19 infection per RT-PCR assay of a pharyngeal sample (nasopharyngeal or oropharyngeal) AND pneumonia defined as radiographic opacities on chest X-ray • 3. The patient requires supplemental oxygen at baseline • 4. The patient, guardian or legal representative has signed a written IRB-approved informed consent Exclusion: • 1. Any co-morbidity that may add risk to the treatment in the judgement of the investigator. • 2. Requiring intubation and mechanical ventilation • 3. Oxygen saturation≥95% on room air • 4. Any preexisting respiratory condition that requires intermittent or continuous ambulatory oxygen prior to hospitalization • 5. Patient is, in the investigator's clinical judgement, unlikely to survive >72 hours • 6. Pregnant (positive serum test within 3 days prior to randomization) or nursing women • 7. Unwillingness or inability to comply with procedures required in this protocol. • 8. Corrected QT (QTc) interval on electrocardiogram (ECG) >470 ms for females or >450 ms for males, calculated using Friedericia's formula (QTcF) • 9. AST (SGOT) or ALT (SGPT) >2.5× upper limit of normal (ULN) • 10. Bilirubin>1.5×ULN (except where bilirubin increase is due to Gilbert's Syndrome) • 11. Serum creatinine>2.0×ULN • 12. Absolute neutrophil count<1000 cells/mm^3 • 13. Platelet count<75,000/mm^3 • 14. Hemoglobin<8.0 g/dL • 15. Currently taking medications that are sensitive CYP3A4, CYP2C9 or CYP2C19 substrates and have a narrow therapeutic index • 16. Currently taking medications that are strong inducers or inhibitors of CYP2D6 and CYP3A4 • 17. Currently taking warfarin, apixaban, argatroban or rivaroxaban • 18. Current drug or alcohol abuse • 19. Currently participating in a clinical study assessing pharmacological treatments, including anti-viral studies Number of Subjects: […]

[2] = system: patients with severe COVID-19 pneumonia; assay: Randomized, double-blind, placebo-controlled Phase 2/3 study of opaganib in COVID-19 pneumonia (baseline FiO2 up to 60% subgroup)

O=C(NCc1ccncc1)C12CC3CC(C1)CC(c1ccc(Cl)cc1)(C3)C2 [opaganib, 3-(4-chlorophenyl)-adamantane-1-carboxylic acid (pyridin-4-ylmethyl) amide, hydrochloride salt]
patients with serious adverse events (SAEs) vs. placebo arm ([1]; 500 mg Q12 hours up to 14 days): fewer patients | safety ([1]; 500 mg Q12 hours up to 14 days plus standard of care, vs. placebo): safe | reduction from baseline of the medial total oxygen requirement (AUC) over 14 days ([1]; control arm 46.7%): 68.0% | proportion of patients discharged by Day 14 ([1]; control arm 55.6%): 73.7% | proportion of patients reaching room air and no longer requiring oxygen support by Day 14 ([1]; mITT sensitivity, control arm 22.2%): 52.6% | proportion of patients with 50% reduction in supplemental oxygen by day 14 ([1]; mITT sensitivity, control arm 66.7%): 89.5% | patients with adverse events such that study drug was terminated ([1]; opaganib arm, one patient in placebo arm): Two | overall adverse events vs. placebo group ([2]; 500 mg Q12 hours, 14 days): balanced | patients reaching room air by Day 14 (no supplemental oxygen for at least 24 hours) ([2]; baseline FiO2 up to 60%, 90/117 patients, placebo 85/134 (63.5%)): 77% | efficacy benefit in mortality, Sensitivity Analysis ([2]; baseline FiO2 up to 60%, nominal p-value=0.033): 64% | mortality (deaths/patients), Sensitivity Analysis ([2]; baseline FiO2 up to 60%, placebo 16/134): 5/117 | efficacy benefit in reaching room air by Day 14 ([2]; baseline FiO2 up to 60%, vs. placebo, nominal p-value=0.033): 21% | median time to discharge ([2]; baseline FiO2≤60% (251 patients), placebo 14 days): 10 days | Time to a score of <=3 on the WHO Ordinal Scale: Kaplan-Meier Median ([2]; baseline FiO2≤60%, 95% CI (7.00-9.00), placebo 10.00): 8.00 days | Patients With an Improvement of 2 or More on the WHO Ordinal Scale Compared to Baseline by Day 14 ([2]; baseline FiO2≤60%, N = 117): 93 (79.49) n (%) | Time to Discharge by day 42: Number of Events ([2]; baseline FiO2≤60%, N = 117): 81 (69.2) n (%) | Time to a score of <=3 on the WHO Ordinal Scale: Number of Events ([2]; baseline FiO2≤60%, N = 117): 93 (79.5) n (%) | Time to Discharge by day 42: Difference and 95% CI (opaganib vs. placebo) ([2]; baseline FiO2≤60%, p-value 0.0022): −4.48 (−7.34, −1.62) days | Difference in Rates (Opaganib-Placebo), improvement of 2 or more on the WHO Ordinal Scale by Day 14 ([2]; baseline FiO2≤60%, p-value 0.023): 13.82% | Time to Discharge by day 42: Kaplan-Meier Mean (Restricted Mean Analysis) ([2]; baseline FiO2≤60%, placebo 17.89): 13.41 days | mortality (deaths/patients) ([2]; mITT with baseline FiO2 up to 60%, through Day 42, placebo 21/134): 7/117 | reduction in mortality ([2]; mITT with baseline FiO2 up to 60%, vs. placebo, nominal p-value=0.019): 62%
